Here are results for 15 molecules from US8987257B2 (Novartis AG, priority 2011, dated 2015).

SMILES strings stand for the structures.

Assay [1] concerns constitutively active mTOR. The experiment in a line: Test 3: TSC Assay (high content imaging of phospho-S6 (240/244) in TSC1−/− MEFs). Type of assay: cell-based. Conditions: Mus musculus, pS6 240/244 staining, 2 hrs compound treatment.
Procedure: This assay generates IC50 values for compounds that inhibit mTOR.
Quantification of pS6 Staining Using High-Content Imaging and Analysis
Day 0: Cell plating. Subconfluent TSC1−/− MEFs are harvested by trypsinization, resuspended in growth medium, and counted. […] The plates are briefly spun down and placed at 37° C. and 5% CO2. • 2. Day 1: Cell plates are washed into a PBS starve solution (contains glucose, sodium bicarbonate, HEPES and phenol red) using a 384-well plate washer. The wash protocol aspirates the volume down to 30 μL/well before dispensing 60 μL/well of the PBS starve solution. Aspiration and dispensing steps are repeated 8 times and a final volume of 30 μL/well is left. The cell plates are placed at 37° C. and 5% CO2 for 2 hrs. • Compound treatment. Compound dose responses are prepared in DMSO. The dose responses are then diluted 1:50 in medium. 10 ul of the diluted compound is added to 30 ul of cells, yielding a final 1:200 dilution of the original compound and final of 0.5% DMSO. Compound-treatments are performed in triplicates. The plates are placed at 37° C. and 5% CO2 for 2 hrs. Cells are then fixed by adding 10 μL/well 5× concentrated Mirsky's fixative. […] The cell plates are briefly spun down and incubated for 1 h at room temperature. Cells are then washed using a 384-well plate washer using a protocol which aspirates the volume down to 30 μL/well before dispensing 60 μL/well 1×TBS. Aspiration and dispensing steps are repeated 8 times and then an additional aspiration step leaves a final volume of 10 μL/well. Block buffer (1×TBS+0.1% Triton X-100+0.1% BSA) is then added at 25 μL/well and the plates are incubated at room temperature for 30 min. The cell plates are then aspirated down to 10 μL/well. […] Plates are incubated overnight at 4° C. • 3. […] The bottom of the plate is cleaned with 70% ethanol and then imaged using the InCell 1000 automated epifluorescence microscope. […] Cy5 images are acquired using an excitation of 620 nm (Chroma 620—60× filter), an emission of 700 nm (Chroma HQ700—75M filter) and an exposure time of 200 ms. A double band pass mirror is used for all images. • 4. Image analysis: The InCell Analysis software is used to analyze the images using the Dual Object algorithm. […] The Cy5 fluorescence intensity inside the collar is measured (cell intensity) and results are reported on an “Average per cell” basis. • 5. IC50 calculation: IC50s are calculated by plotting the cell intensity values on the y-axis with dose response values on the x-axis. IC50 values represent compound potency against mTOR.
The target in the next assay is PI3Kα (Homo sapiens (Human), UniProt P42336). The assay can be described thus: Test 1: PI3 Kinase Assay (PI3K KinaseGlo assay). In kind it is biochemical. The conditions noted are these: 1 μM ATP. A general note: Kinase-Glo measures the ATP left after a reaction by luminescence.
The next assay has as its system H4 mCherry-GFP-LC3 cells. The experiment in a line: Test 4: Autophagy Assay (mCherry-GFP-LC3 reporter, high-content imaging). In kind it is cell-based. Conditions: Homo sapiens, Table 4 (unit inferred), mCherry-positive LC3 puncta/cell, 16-18 h. An excerpt: Autophagy is a catabolic pathway that degrades bulk cytosol in lysosomal compartments enabling amino acids and fatty acids to be recycled. […] To quantify autophagy induction by mTOR inhibitors, we use a mCherry-GFP-LC3 reporter which is amenable to retroviral delivery into mammalian cells, stable expression and analysis by fluorescence microscopy.
Described hereinafter is an imaging protocol and image recognition algorithm to visualize and measure changes in the autophagic pathway.
Quantification of Autophagy Using High-Content Imaging and Analysis
• 1. Day 0: Cell plating. Subconfluent H4 mCherry-GFP-LC3 cells are harvested by trypsinization, resuspended in growth medium, and counted (H4 cells: Human neuroglioma cell line (ATCC)). A cell suspension of 66′000 cells/mL is prepared and 30 μL are added into the wells of a 384-well plate using an electronic multichannel pipette. […] The cell plates are briefly spun down and placed at 37° C. and 5% CO2. • 2. Day 1: Compound treatment. Compound dose responses are prepared in DMSO. The dose responses are then diluted 1:50 in medium. 10 ul of the diluted compound is added to 30 ul of cells, yielding a final 1:200 dilution of the original compound and final of 0.5% DMSO. Compound-treatments are performed in triplicates. The 384-well plates are placed at 37° C. and 5% CO2. Compound treatment is performed for 16-18 h (see Note 1). • 3. Day 2: Cell fixation. Cells are fixed by adding 10 μL/well 5× concentrated Mirsky's fixative supplemented with 25 μg/mL Hoechst33342. […] The 384-well plate is briefly spun down and incubated for 1 h at room temperature. Cells are then washed using a 384-well plate washer using a protocol which aspirates the volume down to 10 μL/well before dispensing 100 μL/well 1×TBS. Aspiration and dispensing steps are repeated 4 times and a final volume of 100 μL/well is left. The plate is sealed using an adhesive PCR foil. • 4. Imaging. The bottom of the plate is cleaned with 70% ethanol and then imaged using the InCell 1000 automated epifluorescence microscope. 20× magnification is used and 4 different areas (fields) are imaged per well, this typically captures a total of around 400 cells per well. Hoechst33342 images are acquired using an excitation of 360 nm (D360—40× filter), an emission of 460 nm (HQ460—40M filter) and an exposure time of 150 ms. GFP images are acquired using an excitation of 475 nm (S47520× filter), an emission of 535 nm (HQ535—50M filter) and an exposure time of 1 s. mCherry images are acquired using an excitation of 535 nm (HQ535—50× filter), an emission of 620 nm (HQ620—60M filter) and an exposure time of 1 s. A quadruple band pass mirror is used for all images. • 5. Image analysis. The InCell Analysis software is used to analyze the images using the Multi Target Analysis algorithm. First, nuclei are detected in the Hoechst33342 image using top-hat segmentation and a minimal nuclear area of 50 μm^2. Cells are defined using a collar of 10 μm around the nuclei. Second, puncta (organelles) are identified in the mCherry image inside the cells using multi-top-hat segmentation. Third, the mask of the mCherry puncta is transferred onto the GFP image. Fourth, the GFP fluorescence intensity inside the mCherry puncta mask is measured (reference intensity). • 6. The ‘organelles’ parameter reflects mCherry-positive puncta of the mCherry-GFP-LC3 reporter and is used to calculate ‘LC3 puncta/cell’. For this purpose, the number of organelles is calculated per cell and averaged over all the cells in a given well (average per cell basis). mCherry-positive LC3 puncta numbers (y-axis) are plotted against the compound dose response values (x-axis) and EC50 values are calculated for each compound. EC50 values represent compound potency in terms of autophagy activation (e.g. increase in mCherry-positive LC3 puncta count). Notes • 1. Autophagy-modulation and redistribution of mCherry-GFP-LC3 can be already observed after a compound treatment time of 3-4 h. […]

In another assay the target is FRAP1/mTOR (Homo sapiens (Human), UniProt P42345). The assay can be described thus: Test 2: mTOR Biochemical Assay (FRAP1/mTOR TR-FRET tracer assay). Type of assay: binding. Conditions: mTOR Kinase Tracer 314.
Chain of FRAP1/mTOR (P42345 1360-2549): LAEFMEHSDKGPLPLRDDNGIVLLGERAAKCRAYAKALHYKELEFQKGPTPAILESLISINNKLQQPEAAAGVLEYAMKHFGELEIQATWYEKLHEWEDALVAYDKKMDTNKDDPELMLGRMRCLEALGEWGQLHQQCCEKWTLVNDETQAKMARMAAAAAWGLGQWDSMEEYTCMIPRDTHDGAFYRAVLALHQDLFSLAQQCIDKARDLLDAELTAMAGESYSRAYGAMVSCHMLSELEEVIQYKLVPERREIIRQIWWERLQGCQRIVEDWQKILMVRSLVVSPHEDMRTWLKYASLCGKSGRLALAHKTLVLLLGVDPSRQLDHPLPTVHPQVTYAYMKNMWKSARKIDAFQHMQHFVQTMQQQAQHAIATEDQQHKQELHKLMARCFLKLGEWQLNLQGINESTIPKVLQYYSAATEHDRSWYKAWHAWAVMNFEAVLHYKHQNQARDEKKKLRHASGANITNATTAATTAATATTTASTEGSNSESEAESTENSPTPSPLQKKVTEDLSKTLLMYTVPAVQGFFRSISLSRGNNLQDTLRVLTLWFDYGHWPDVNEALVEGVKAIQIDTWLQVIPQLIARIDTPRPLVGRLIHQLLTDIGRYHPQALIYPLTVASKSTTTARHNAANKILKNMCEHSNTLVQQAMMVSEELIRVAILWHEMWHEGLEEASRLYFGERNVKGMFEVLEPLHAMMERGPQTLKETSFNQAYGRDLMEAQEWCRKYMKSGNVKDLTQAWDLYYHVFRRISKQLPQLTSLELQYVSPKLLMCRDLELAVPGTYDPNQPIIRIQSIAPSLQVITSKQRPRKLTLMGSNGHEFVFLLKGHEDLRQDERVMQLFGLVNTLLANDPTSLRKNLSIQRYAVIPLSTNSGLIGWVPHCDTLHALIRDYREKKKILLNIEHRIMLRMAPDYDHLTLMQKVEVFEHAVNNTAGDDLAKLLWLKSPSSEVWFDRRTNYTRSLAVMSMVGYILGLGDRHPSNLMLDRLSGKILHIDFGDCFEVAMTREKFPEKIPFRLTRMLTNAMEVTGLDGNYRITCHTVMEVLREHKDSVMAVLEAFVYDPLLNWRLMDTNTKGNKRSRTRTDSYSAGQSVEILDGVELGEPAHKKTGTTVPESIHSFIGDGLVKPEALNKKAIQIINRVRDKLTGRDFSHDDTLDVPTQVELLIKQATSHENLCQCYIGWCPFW

Chain of PI3Kα (P42336 other isoform, or with tags, fused parts or gaps): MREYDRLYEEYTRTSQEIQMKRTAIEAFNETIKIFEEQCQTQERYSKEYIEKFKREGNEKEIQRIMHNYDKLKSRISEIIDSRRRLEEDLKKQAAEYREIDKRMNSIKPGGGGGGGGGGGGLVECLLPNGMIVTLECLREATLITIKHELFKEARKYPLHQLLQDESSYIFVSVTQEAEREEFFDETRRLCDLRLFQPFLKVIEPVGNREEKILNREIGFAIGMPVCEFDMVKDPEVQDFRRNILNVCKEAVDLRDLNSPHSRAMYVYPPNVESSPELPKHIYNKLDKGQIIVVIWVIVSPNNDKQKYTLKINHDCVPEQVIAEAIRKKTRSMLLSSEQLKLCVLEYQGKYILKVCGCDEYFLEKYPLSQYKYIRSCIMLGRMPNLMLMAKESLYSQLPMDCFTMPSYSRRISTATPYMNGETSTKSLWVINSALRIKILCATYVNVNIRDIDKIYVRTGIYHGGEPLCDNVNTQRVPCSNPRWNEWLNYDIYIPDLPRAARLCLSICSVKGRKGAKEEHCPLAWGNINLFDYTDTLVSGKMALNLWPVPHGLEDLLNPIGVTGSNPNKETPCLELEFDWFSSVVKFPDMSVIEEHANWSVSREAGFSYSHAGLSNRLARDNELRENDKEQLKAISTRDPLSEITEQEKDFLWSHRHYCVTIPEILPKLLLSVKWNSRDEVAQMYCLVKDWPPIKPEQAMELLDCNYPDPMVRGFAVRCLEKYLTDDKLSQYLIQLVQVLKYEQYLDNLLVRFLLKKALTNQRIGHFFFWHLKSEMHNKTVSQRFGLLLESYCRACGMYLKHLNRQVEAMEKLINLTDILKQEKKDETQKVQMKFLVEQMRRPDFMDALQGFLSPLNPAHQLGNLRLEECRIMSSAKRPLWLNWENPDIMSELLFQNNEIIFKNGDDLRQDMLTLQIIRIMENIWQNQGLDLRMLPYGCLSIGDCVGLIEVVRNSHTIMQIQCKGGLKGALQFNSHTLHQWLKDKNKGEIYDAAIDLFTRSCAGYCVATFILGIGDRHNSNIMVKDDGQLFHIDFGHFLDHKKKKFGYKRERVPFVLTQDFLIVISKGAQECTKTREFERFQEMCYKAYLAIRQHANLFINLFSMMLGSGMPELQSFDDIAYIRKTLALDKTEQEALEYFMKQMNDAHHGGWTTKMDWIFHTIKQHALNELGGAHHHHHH
Procedure for FRAP1/mTOR: IC50s for mTOR interacting compounds were assessed using the FRAP1/mTOR TR-FRET tracer assay (Invitrogen by Life Technologies). […] Compounds were serially diluted in DMSO (12-point, 4× dilution factor) and 1 μL of diluted compound was then added to each well and mixed by pipetting using a Biomek FX (Beckman Coulter).
Procedure for PI3Kα: L-a-phosphatidylinositol (PI), provided as 10 mg/ml solution in methanol, was transferred into a glass tube and dried under nitrogen beam. It was then resuspended in 3% OctylGlucoside (OG) by vortexing and stored at 4° C. The KinaseGlo Luminescent Kinase Assay (Promega, Madison/WI, USA) is a homogeneous HTS method of measuring kinase activity by quantifying the amount of ATP remaining in solution following a kinase reaction.
Kinase reactions were started by addition of 5 μl of ATP-mix containing in a final volume 10 μL 10 mM TRIS-HCl pH 7.5, 3 mM MgCl2, 50 mM NaCl, 0.05% CHAPS, 1 mM DTT and 1 μM ATP, and occurred at room temperature.
The PI3Kα construct is a fusion of p85α iSH2 domain and the respective p110 isoform. The p85α fragment and p110 isoform gene were generated by PCR from first strand cDNA generated by RT-PCR from commercial RNA from placenta, testis and brain as described below.
The p85 fragment was derived from plasmid p1661-2 digested with Nhe/Spe. The p110α fragment derived from its clone was verified by sequencing and used in LR410 as a SpeI/HindIII fragment. For the generation of the baculovirus expression vector LR410 the gateway LR reaction to transfer the insert into the Gateway adapted pBlueBac4.5 (Invitrogen) vector was used. The cloning vector pBlueBac4.5 (Invitrogen) was digested with Nhe/HindIII. […] The two reverse primers overlap and incorporate a 12×Gly linker and the N-terminal sequence of the p110α gene to the SpeI site. The PCR fragment was cloned into pCR2.1 TOPO (Invitrogen). Of the resulting clones, p1661-2 was determined to be correct by sequencing. This plasmid was digested with Nhe and SpeI and the resulting fragment was gel-isolated and purified for sub-cloning.
PI3Kα was purified in two chromatographic steps: immobilized metal affinity chromatography (IMAC) on a Ni sepharose resin (GE Healthcare) and gel filtration utilizing a Superdex 200 26/60 column (GE Healthcare). All buffers were chilled to 4° C. and lysis was performed chilled on ice. Column fractionation was performed at room temperature.

With `C[C@@H]1COCCN1c1nc(N2CCOC[C@@H]2C)nc2[nH]c(-c3cccc4c3CCN4)nc12` [Example 41, 8-(2,3-Dihydro-1H-indol-4-yl)-2-((S)-3-methyl-morpholin-4-yl)-6-((R)-3-methyl-morpholin-4-yl)-9H-purine], the IC50 – broadly, the point on the concentration scale where inhibition reaches its midpoint – amounted to 457 nM in assay [1], 3350 nM at PI3Kα and 30 nM against FRAP1/mTOR. Besides, the response with H4 mCherry-GFP-LC3 cells was half-maximal at 2900 nM (EC50).

With `C[C@@H]1COCCN1c1nc(N2CCOC[C@H]2C)c2nc(-c3cccc4c3CCN4)[nH]c2n1` [Example 42, 8-(2,3-Dihydro-1H-indol-4-yl)-2,6-bis-((R)-3-methyl-morpholin-4-yl)-9H-purine], the figures for the IC50 (in assay [1]; against PI3Kα; at FRAP1/mTOR) were 99 nM, 4910 nM and 40 nM, respectively. In addition, the half-maximal effective concentration (EC50) (commonly the concentration that produces a half-maximal response) in the assay on H4 mCherry-GFP-LC3 cells was 4630 nM.

For the molecule `C[C@@H]1COCCN1c1nc(N2CCOC[C@@H]2C)nc2[nH]c(-c3cccc4[nH]ccc34)nc12` [Example 43, 8-(1H-Indol-4-yl)-2-((S)-3-methyl-morpholin-4-yl)-6-((R)-3-methyl-morpholin-4-yl)-9H-purine], the IC50 in assay [1] is 39 nM; at PI3Kα, 1010 nM; against FRAP1/mTOR it was 40 nM. In the assay on H4 mCherry-GFP-LC3 cells, this molecule came in with an EC50 of 160 nM.

As for `C[C@@H]1COCCN1c1nc(N2CCOC[C@@H]2C)nc2[nH]c(-c3ccc4cc[nH]c4c3)nc12` [Example 44, 8-(1H-Indol-6-yl)-2-((S)-3-methyl-morpholin-4-yl)-6-((R)-3-methyl-morpholin-4-yl)-9H-purine], the IC50 in assay [1] was found to be 388 nM; against PI3Kα, 5950 nM; against FRAP1/mTOR, 140 nM. For the same molecule, the EC50 with H4 mCherry-GFP-LC3 cells is 395 nM.

With `C[C@@H]1COCCN1c1nc(N2CCOC[C@H]2C)c2nc(-c3ccc4cc[nH]c4c3)[nH]c2n1` [Example 45, 8-(1H-Indol-6-yl)-2,6-bis-((R)-3-methyl-morpholin-4-yl)-9H-purine], the 50% inhibitory concentration (IC50) in assay [1] was found to be 989 nM; against PI3Kα, 7080 nM; at FRAP1/mTOR, 650 nM. In addition, the EC50 in the assay on H4 mCherry-GFP-LC3 cells is more than 400 nM.

As to `C[C@@H]1COCCN1c1nc(N2CC3CCC(C2)O3)nc2[nH]c(-c3cccc4[nH]ccc34)nc12` [Example 46, 8-(1H-Indol-4-yl)-6-((R)-3-methyl-morpholin-4-yl)-2-(8-oxa-3-aza-bicyclo[3.2.1]oct-3-yl)-9H-purine], the IC50 in assay [1] worked out at 100 nM; at PI3Kα it was 580 nM; against FRAP1/mTOR, 30 nM. In the assay with H4 mCherry-GFP-LC3 cells, this molecule showed a half-maximal effective concentration (EC50) of 171 nM.

Regarding `C[C@@H]1COCCN1c1nc(N2CCOCC2)c2nc(-c3cccc4[nH]ccc34)[nH]c2n1` [Example 47, 8-(1H-Indol-4-yl)-2-((R)-3-methyl-morpholin-4-yl)-6-morpholin-4-yl-9H-purine], the IC50 in assay [1] was 111 nM; on PI3Kα, 60 nM; against FRAP1/mTOR it was 60 nM. It took 461 nM to reach a half-maximal effect in the assay on H4 mCherry-GFP-LC3 cells (EC50).

As for `c1cc2ccc(-c3nc4c(N5C[C@@H]6C[C@H]5CO6)nc(N5CCOCC5)nc4[nH]3)cc2[nH]1` [Example 48, 8-(1H-Indol-6-yl)-2-morpholin-4-yl-6-(1S,4S)-2-oxa-5-aza-bicyclo[2.2.1]hept-5-yl-9H-purine], the IC50 in assay [1] worked out at 1460 nM; at PI3Kα, 4300 nM; on FRAP1/mTOR, 1010 nM. The molecule also yielded an EC50 in the assay with H4 mCherry-GFP-LC3 cells of 6410 nM.

Regarding `C[C@H]1COCCN1c1nc(N2CCOCC2)c2nc(-c3ccc4cc[nH]c4c3)[nH]c2n1` [Example 49], the IC50 in assay [1] was determined as 678 nM; against PI3Kα, 4430 nM; at FRAP1/mTOR, 370 nM. For the same molecule, the concentration giving a half-maximal response (EC50) in the assay with H4 mCherry-GFP-LC3 cells was more than 500 nM.

Consider `c1cc(-c2nc3c(N4C[C@@H]5C[C@H]4CO5)nc(N4CCOCC4)nc3[nH]2)c2cc[nH]c2c1` [Example 50, 8-(1H-Indol-4-yl)-2-morpholin-4-yl-6-(1S,4S)-2-oxa-5-aza-bicyclo[2.2.1]hept-5-yl-9H-purine], for which the half-maximal inhibitory concentration (IC50) in assay [1] is 920 nM; on PI3Kα it was 4220 nM; against FRAP1/mTOR, 1200 nM. In the assay on H4 mCherry-GFP-LC3 cells, this molecule gave an EC50 of 8670 nM.

For `C[C@H]1COCCN1c1nc(N2CC3CCC(C2)O3)nc2[nH]c(-c3cccc4[nH]ccc34)nc12` [Example 52, 8-(1H-Indol-4-yl)-6-((S)-3-methyl-morpholin-4-yl)-2-(8-oxa-3-aza-bicyclo[3.2.1]oct-3-yl)-9H-purine], the figures for the IC50 (in assay [1]; at PI3Kα; against FRAP1/mTOR) were 88 nM, 420 nM and 50 nM, respectively. The same molecule yielded an EC50 with H4 mCherry-GFP-LC3 cells of 386 nM.

With `c1cc2ccc(-c3nc4c(N5C6CCC5COC6)nc(N5CCOCC5)nc4[nH]3)cc2[nH]1` [Example 53, 8-(1H-Indol-6-yl)-2-morpholin-4-yl-6-(3-oxa-8-aza-bicyclo[3.2.1]oct-8-yl)-9H-purine], the half-maximal inhibitory concentration (IC50) is 528 nM in assay [1], more than 9100 nM against PI3Kα and 190 nM against FRAP1/mTOR. In the assay with H4 mCherry-GFP-LC3 cells, this molecule yielded an EC50 of 782 nM.

Turning to `c1cc(-c2nc3c(N4C5CCC4COC5)nc(N4CCOCC4)nc3[nH]2)c2cc[nH]c2c1` [Example 54, 8-(1H-Indol-4-yl)-2-morpholin-4-yl-6-(3-oxa-8-aza-bicyclo[3.2.1]oct-8-yl)-9H-purine], the IC50 in assay [1] amounted to 309 nM; against PI3Kα, 5790 nM; at FRAP1/mTOR it was 150 nM. In the assay on H4 mCherry-GFP-LC3 cells, this molecule returned an EC50 of 1250 nM.

Take `C[C@@H]1COCCN1c1nc(N2CCOC[C@@H]2C)nc2[nH]c(-c3cccc4[nH]ccc34)cc12` [Example 55, 6-(1H-Indol-4-yl)-4-((R)-3-methyl-morpholin-4-yl)-2-((S)-3-methyl-morpholin-4-yl)-7H-pyrrolo[2,3-d]pyrimidine]: the IC50 in assay [1] amounted to 71 nM; against PI3Kα it was 1440 nM; at FRAP1/mTOR, 2670 nM. For the same molecule, in the assay with H4 mCherry-GFP-LC3 cells, the EC50 turned out to be 1000 nM.

In the case of `c1cc(-c2cc3c(N4CCOCC4)nc(N4CCOCC4)nc3[nH]2)c2cc[nH]c2c1` [Example 56, 6-(1H-Indol-4-yl)-2,4-di-morpholin-4-yl-7H-pyrrolo[2,3-d]pyrimidine], the half-maximal inhibitory concentration (IC50) in assay [1] is 174 nM; on PI3Kα, 2010 nM; against FRAP1/mTOR it was 2390 nM. This molecule also had a 50% effective concentration (EC50) in the assay with H4 mCherry-GFP-LC3 cells of 3650 nM.
